Laboratory results as given in ChEMBL document CHEMBL1201862, “PubChem BioAssay data set” (2004).
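Dose response: 5 concentrations. Exposure: 48 h. Format: 96-well plates. Endpoint: linear interpolation; highest concentration if not reached. GI50 = concentration required for 50% inhibition of growth.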 The source made the active and inactive calls. No stated cut-off is given here; in the data, active = GI50 up to about 1.1 µM and inactive = higher.

Assays:
Experiment in all cases: inhibition of tumour cell growth, NCI panel, 48 h
DMS-114 = system: DMS-114
U-251 = system: U-251
HOP-92 = system: HOP-92
A498 = system: A498
SNB-78 = system: SNB-78
XF498 = system: XF498
Malme-3M = system: Malme-3M
RXF 393 = system: RXF 393
LXFL 529 = system: LXFL 529
EKVX = system: EKVX
SK-MEL-2 = system: SK-MEL-2
KM-20L2 = system: KM-20L2
OVCAR-3 = system: OVCAR-3
M19-MEL = system: M19-MEL
LOX IMVI = system: LOX IMVI
MDA-MB-231 = system: MDA-MB-231
PC-3 = system: PC-3
DU-145 = system: DU-145
MCF7 = system: MCF7
BT-549 = system: BT-549

Compound | GI50 (DMS-114) | GI50 (U-251) | GI50 (HOP-92) | GI50 (A498) | GI50 (SNB-78) | GI50 (XF498) | GI50 (Malme-3M) | GI50 (RXF 393) | GI50 (LXFL 529) | GI50 (EKVX) | GI50 (SK-MEL-2) | GI50 (KM-20L2) | GI50 (OVCAR-3) | GI50 (M19-MEL) | GI50 (LOX IMVI) | GI50 (MDA-MB-231) | GI50 (PC-3) | GI50 (DU-145) | GI50 (MCF7) | GI50 (BT-549)
[O-]c1c2c(nn1-c1ccc(F)cc1)c1ccccc1c[n+]2Cc1ccccc1 | 10.8 µM (inactive) | 16.4 µM (inactive) | 18.9 µM (inactive) | 30.9 µM (inactive) | 1.96 µM (inactive) | 19.2 µM (inactive) | 11.7 µM (inactive) | 15.1 µM (inactive) | 0.448 µM (active) | 19.4 µM (inactive) | 0.501 µM (active) | 11.6 µM (inactive) | 7.69 µM (inactive) |  |  |  |  |  |  | 
O=[N+]([O-])c1ccc(-c2ccc(-c3csc(Nc4ccccn4)n3)o2)cc1 |  | 13.8 µM (inactive) | > 100 µM (inactive) |  | 28.2 µM (inactive) | 22.7 µM (inactive) | 32.3 µM (inactive) |  | 25.1 µM (inactive) |  | > 100 µM (inactive) | > 100 µM (inactive) | > 100 µM (inactive) | 58.6 µM (inactive) | 63.4 µM (inactive) |  |  |  |  | 
Cc1nn(C(=O)Cc2ccccc2)c2c1C(c1ccc3ccccc3c1O)SC(=N)N2 (configuration not stated) |  |  |  | > 100 µM (inactive) |  |  |  |  |  | > 100 µM (inactive) |  |  |  |  | > 100 µM (inactive) | > 100 µM (inactive) | > 100 µM (inactive) | > 100 µM (inactive) | > 100 µM (inactive) | > 100 µM (inactive)
